Data from US4835160A, “Derivatives of pyridoindole, having anti-tumor properties” (Sanofi, priority 1986, dated 1989).

Assays:
in vivo = test: in vivo; set-up: species or system CDF1 hybrid mice; conditions: mouse, ip
Text: The compounds of the invention benefit from a good tolerance and a weak toxicity.
Thus the administration, to healthy CDF1 hybrid mice, in a single injection by intraperitoneal route, of the compounds under test, has enabled it to be established that the product is perfectly tolerated at a high dosage since the survival rate of the animals of the experiment was 100 out of 100 thirteen days after administration.

leukemia P 388 = test: Test of leukemia P 388; IP/IP, D1-5; type: in vivo, CDF1 hybrid mice; conditions: D1-D5; for Number of survivors: day D30; for T/C %: survival time
Experimental: (2) In vivo: (GERAN et al., Cancer Chemother., 1972, 2, 07-57):
(§1) The antitumour activity was tested in vivo on various tumours inoculated in various ways according to the following general protocol:
(§2) All the male or female mice are inoculated on day D0 with a known quantity of viable tumour cells for ascitic tumours or with a known tumour fragment for solid tumours.
(§3) They are then distributed into various groups. Each group, corresponding to the animals treated by the product under test, is made up of 10 mice. The product under test is dissolved in distilled water and it is administered n times (Dx-Dy), n, y, and x varying according to the protocol chosen, at the rate of 0.1 ml of solution per 10 g by weight of mice treated and at specific doses for each protocol.
(§4) The "negative control" group, corresponding to the animals which are not treated by the product, contains 2√N animals, N being equal to or greater than the total number of mice treated by the product in the same experiment.
(§5) Finally, the tests can also be carried out at the same time as the study of a group called "positive control", of ten animals, which is treated by a molecule, known for its antitumour activity and which can vary according to the protocol chosen, in the same conditions as the groups treated by the product under test.
(§6) The antitumour activity is evaluated, in the case of ascitic tumours, by considering the increase in the survival time of the animals treated in comparison to that of the animals in the "negative control" group, according to the formula: [formula]
The criterion for activity varies according to the protocol.
(§7) Also, a product is considered as toxic at the dose studied when this T/C value is equal to or less than 85%. In addition, a product is also considered as toxic at the dose studied when the weight variation, expressed in grams and calculated by the formula: […]
"Average weight of the group measured on day 5--Average weight of the same group measured on day 1"
is equal to or less than 4 g.
(a) Test of lelukemia P 388; IP/IP, D1-5 (GERAN et al., Cancer Chemother., 1972, 2, 07-57).
The tests are carried out with CDF1 hybrid mice inoculated by intraperitoneal route with 10^6 leukemia cells from the P 388 line. The compound under test is administered for 5 successive days (D1-D5) by intraperitoneal route. The positive control for the test is 5-fluorouracile which is administered in the same conditions. The number of surviving animals is evaluated on day D30.

reticulosarcoma M5-M5076 = test: Test for reticulosarcoma M5-M5076; type: in vivo, BDF1 hybrid mice; conditions: 50 mg/kg IP, D1,5,9,13,17
Experimental: as §1, §2, §3, §4, §5, §6, §7
The tests are carried out with BDF1 hybrid mice inoculated by intraperitoneal route with 10^6 cells of the M5-M5076 line. The compound under test is administered 5 times successively in sequence (D1,5,9,13,17) by intraperitoneal route. The positive control for the test is cyclophosphamide administered in the same conditions. The number of surviving animals is evaluated on day D75.

[1] = tested on: leukemia tumour line L 1210; test: In vitro cytotoxic activity on leukemia tumour line L 1210; type: cell-based; conditions: Mus musculus, L1210, 48 h, L 1210, 48 hours contact, 37° C.; read-out: I D 50 (concentration which inhibits the proliferation of the cells by 50%)
Experimental: (1) In vitro: ([…] et al., Chem. Biol. Interaction, 1979, 25, 45-58). The cytotoxic activity of the compounds of the invention has been evaluated by in vitro tests. These tests consist of adding increasing concentrations of the compound under test to a cellular culture of the leukemia tumour line L 1210 in an exponential phase of growth. The cellules are incubated at 37° C. in a CO2 incubator and counted every 24 hours. The calculation of the I D 50 (concentration of the product, expressed in 1^-1 micromole, which inhibits the proliferation of the cells by 50%) is made after 48 hours contact.

melanoma B 16 = test: Test for melanoma B 16; type: in vivo, BDF1 hybrid mice; conditions: D1-D9; for Number of survivors: day D60; for T/C %: survival time
Experimental: as §1, §2, §3, §4, §5, §6, §7
(d) Test for melanoma B 16 (GERAN et al., Cancer Chemother., 1972, 2, 07-75).
The tests are carried out with BDF1 hybrid mice inoculated by intraperitoneal route with 0.5 ml of a homogenate of melanoma B 16 made up from 1 g of tumour in 10 ml of physiological serum. The compound under test is administered for 9 days (D1-D9) by intraperitoneal route. The positive control for the test is Cis-Platine administered in the same conditions. The number of surviving animals is evaluated on day D60.

| SMILES | Median day of survival (leukemia P 388; 10 mg/kg IP) [days] | Variation by weight (leukemia P 388; 10 mg/kg IP) [g] | Number of survivors (leukemia P 388; 10 mg/kg IP) | T/C % (leukemia P 388; 10 mg/kg IP) [%] | IC50 [1] [nM] | Median day of survival (leukemia P 388; 5 mg/kg IP) [days] | Variation by weight (g) (leukemia P 388; 5 mg/kg IP) | Number of survivors (leukemia P 388; 5 mg/kg IP) | T/C % (leukemia P 388; 5 mg/kg IP) [%] | Median day of survival (leukemia P 388; 20 mg/kg IP) [days] | Number of survivors (leukemia P 388; 20 mg/kg IP) | T/C % (leukemia P 388; 20 mg/kg IP) [%] | Median day of survival (leukemia P 388; 40 mg/kg IP) [days] | Variation by weight (leukemia P 388; 40 mg/kg IP) [g] | Number of survivors (leukemia P 388; 40 mg/kg IP) | T/C % (leukemia P 388; 40 mg/kg IP) [%] | also measured |
| --- | --- | --- | --- | --- | --- | --- | --- | --- | --- | --- | --- | --- | --- | --- | --- | --- | --- |
| CCN(CC)CCCNc1ncc(C)c2[nH]c3ccccc3c12 [Derivative No. 1, 1-(3-diethylaminopropylamino) 4-methyl-5H-pyrido-[4,3-b]indole] | 15.7 | -0.9 | 0/10 | 130 | – | – | – | – | – | – | – | – | – | – | – | – | survival at 312 h (in vivo; 100 mg/kg): 100%; Median day of survival (leukemia P 388; 50 mg/kg IP): 21.0 days; Variation by weight (leukemia P 388; 50 mg/kg IP): -2.6 g; Number of survivors (leukemia P 388; 50 mg/kg IP): 0/10; T/C % (leukemia P 388; 50 mg/kg IP): 174%; Median day of survival (reticulosarcoma M5-M5076): 32.7 days; Variation by weight (reticulosarcoma M5-M5076): -0.6 g; Number of survivors (reticulosarcoma M5-M5076; day D75): 0/10; T/C % (reticulosarcoma M5-M5076; survival time): 130% |
| CCN(CC)CCCNc1ncc(C)c2[nH]c3ccc(OC)cc3c12 [Derivative No. 4, 1-(3-diethylaminopropylamino)-8-methoxy-4-methyl-5H-pyrido[4,3-b]indole] | 17.0 | – | 0/10 | 147 | 300 | 14.0 | +1.1 g | 0/10 | 121 | 17.25 | 0/10 | 149 | 20.3 | -3.4 | 0/10 | 176 | survival at 312 h (in vivo; 50 mg/kg): 100%; Variation by weight (g) (leukemia P 388; 10 mg/kg IP): +0.7 g; Variation by weight (leukemia P 388; 20 mg/kg IP): -0.9 g; Median day of survival (leukemia P 388; 80 mg/kg IP): 6.6 days; Variation by weight (leukemia P 388; 80 mg/kg IP): -4.8 g; Number of survivors (leukemia P 388; 80 mg/kg IP): 0/10; T/C % (leukemia P 388; 80 mg/kg IP): 57%; Median day of survival (melanoma B 16; 5 mg/kg IP): 29.0 days; Variation by weight (melanoma B 16; 5 mg/kg IP): -1.9 g; Number of survivors (melanoma B 16; 5 mg/kg IP): 0/10; T/C % (melanoma B 16; 5 mg/kg IP): 135% |
| Cc1cnc(NCCCN(C)C)c2c1[nH]c1ccc(O)cc12 [Derivative No. 9, 1-(3-dimethylaminopropylamino)-8-hydroxy-4-methyl-5H-pyrido[4,3-b]indole] | – | – | – | – | 90 | – | – | – | – | – | – | – | – | – | – | – | Median day of survival (melanoma B 16; 0.625 mg/kg IP): 28 days; Variation by weight (g) (melanoma B 16; 0.625 mg/kg IP): +1.3 g; Number of survivors (melanoma B 16; 0.625 mg/kg IP): 0/10; T/C % (melanoma B 16; 0.625 mg/kg IP): 118%; Median day of survival (melanoma B 16; 1.25 mg/kg IP): 33.0 days; Variation by weight (g) (melanoma B 16; 1.25 mg/kg IP): +0.1 g; Number of survivors (melanoma B 16; 1.25 mg/kg IP): 1/10; T/C % (melanoma B 16; 1.25 mg/kg IP): 139%; Median day of survival (melanoma B 16; 2.5 mg/kg IP): 31.25 days; Variation by weight (g) (melanoma B 16; 2.5 mg/kg IP): +0.8 g; Number of survivors (melanoma B 16; 2.5 mg/kg IP): 1/10; T/C % (melanoma B 16; 2.5 mg/kg IP): 131% |
| Cc1cnc(NCCCN(C)C)c2c3ccccc3n(C)c12.Cl.Cl [Derivative No. 17, 4,5-dimethyl 1-(3-dimethylaminopropylamino)-5H-pyrido[4,3-b]indole dihydrochloride] | – | – | – | – | 350 | – | – | – | – | – | – | – | – | – | – | – | Median day of survival (leukemia P 388; 24 mg/kg IP): 15.4 days; Variation by weight (leukemia P 388; 24 mg/kg IP): 0.0 g; Number of survivors (leukemia P 388; 24 mg/kg IP): 0/10; T/C % (leukemia P 388; 24 mg/kg IP): 131% |
| CCN(CC)CCNc1ncc(C)c2c1c1cc(O)ccc1n2C.Cl.Cl [Derivative No. 19, 1-(2-diethylaminoethylamino)-4,5-dimethyl-8-hydroxy-5H-pyrido[4,3-b]indole dihydrochloride] | 17.0 | -0.2 | 0/6 | 153 | 150 | 15.3 | +0.5 g | 0/6 | 142 | 20.3 | 0/6 | 182 | 15.3 | -2.1 | 0/6 | 137 | Variation by weight (g) (leukemia P 388; 20 mg/kg IP): +0.3 g |
